The numbers were not newly measured in patent publication US8901128B2, “Pharmaceutical compositions of ranolazine” (Lupin Limited, priority 2009, dated 2014), which cites them from elsewhere.

For series [1] the following is noted: in vivo.
The conditions of series [2]: low pH that occurs in the stomach.
The subject of series [3] is humans suffering from angina. To be noted: administered as an IR formulation; 120 mg three times daily.

For `COc1ccccc1OCC(O)CN1CCN(CC(=O)Nc2c(C)cccc2C)CC1` (racemic) [ranolazine, (±)-N-(2,6-dimethylphenyl)-4-[2-hydroxy-3-(2-methoxyphenoxy)-propyl]-1-piperazineacetamide], the plasma half-life result in series [1] was “relatively short”. The solubility result in series [2] is “relatively high”. The “antianginal and anti-ischemic efficacy” value in series [3] is reported as “ineffective”.
